Measurements as given in ChEMBL document CHEMBL1208774, “3-D-QSAR and docking studies on the neuronal choline transporter” (Bioorg Med Chem Lett, 2010).
Substitutions are numbered along the chain they refer to.

Legend:
[1] = target: T1, High affinity choline transporter 1 (Mus musculus, UniProt Q8BGY9); test: Inhibition of [3H]choline uptake at choline transporter 1 in mouse brain synaptosome; assay type: tissue-based
T1 sequence (Q8BGY9 whole entry): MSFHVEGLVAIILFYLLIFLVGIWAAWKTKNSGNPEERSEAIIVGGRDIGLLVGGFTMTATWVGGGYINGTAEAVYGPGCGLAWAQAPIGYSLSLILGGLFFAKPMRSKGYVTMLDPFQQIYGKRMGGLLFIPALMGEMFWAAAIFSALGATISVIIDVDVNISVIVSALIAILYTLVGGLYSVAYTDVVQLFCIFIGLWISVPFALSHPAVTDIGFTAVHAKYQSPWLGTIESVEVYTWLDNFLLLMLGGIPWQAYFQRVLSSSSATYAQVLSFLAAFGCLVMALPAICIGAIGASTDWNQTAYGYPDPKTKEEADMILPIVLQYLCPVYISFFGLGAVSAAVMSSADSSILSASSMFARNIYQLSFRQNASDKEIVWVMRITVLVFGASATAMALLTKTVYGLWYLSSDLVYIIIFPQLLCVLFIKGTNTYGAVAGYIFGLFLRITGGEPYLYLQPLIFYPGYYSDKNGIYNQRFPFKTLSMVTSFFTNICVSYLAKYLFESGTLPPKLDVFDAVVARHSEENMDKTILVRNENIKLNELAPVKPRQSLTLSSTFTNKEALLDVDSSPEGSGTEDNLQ

[2] = target: T2, High affinity choline transporter 1 (Rattus norvegicus, UniProt Q9JMD7); test: Binding affinity to rat choline transporter 1
T2 sequence (Q9JMD7 whole entry): T1 sequence (Q8BGY9 whole entry) with S2P, P35A, Y307F, L386F, S467P, V513I, A519S

SMILES | Ki [1] [µM] | Ki [2] [µM]
CNCCO | 3800 | 
C[N+](C)(C)c1ccccc1 | 75.2 | 
C[N+](C)(C)CCCO | 2.2 | 
C[N+](C)(C)CCCCO | 310 | 
CN(C)CCCO | 290 | 
CC(=O)OCCC[N+](C)(C)C | 190 | 
COC(=O)CC[N+](C)(C)C | 270 | 
CCOC(=O)CC[N+](C)(C)C | 340 | 
COc1cc(C#CCC[N+](C)(C)C)cc(OC)c1OC | 2 | 
COc1cc(C#CCC[N+]23CCC(CC2)C3)cc(OC)c1OC | 0.05 | 
COc1cc(C#CCC[N+]23CCC(CC2)CC3)cc(OC)c1OC | 0.09 | 
CC[N+]1(CCC#Cc2cc(OC)c(OC)c(OC)c2)CCCCC1 | 0.18 | 
CC[N+]1(CCC#Cc2cc(OC)c(OC)c(OC)c2)CCCC1 | 0.2 | 
CCCCCCCC[N+]1(CCC#Cc2cc(OC)c(OC)c(OC)c2)CCCCC1 | 0.23 | 
Cc1cc(C)nc(C)c1 | 107 | 
C[N+]12CCC(CC1)C(=O)C2 | 0.521 | 
C[N+]12CCC(CC1)CC2 | 4.7 | 
C1CN2CCC1CC2 | 40.1 | 
C[N+]12CCC(O)(CC1)CC2 | 72.1 | 

SMILES | Ki [1] [µM] | Ki [2] [µM]
CC1C(O)C2CC[N+]1(C)CC2 (configuration not stated) | 210 | 
C[n+]1cccc(C(N)=O)c1 | 361 | 
CC[N+](CC)(CC)CCC#Cc1cc(OC)c(OC)c(OC)c1 | 0.701 | 
CCCCC[N+]1(CCC#Cc2cc(OC)c(OC)c(OC)c2)CCCCC1 | 0.02 | 
OCC[N+]12CCC(CC1)CC2 | 0.64 | 
CCCCCCCCCCCCCCCC[n+]1ccccc1 | 32.1 | 
Nc1ccncc1N [AMIFAMPRIDINE] | 820 | 
C[N+](C)(C)CCO.[Cl-] [CHOLINE CHLORIDE] | 0.681 | 
Nc1ccncc1 [DALFAMPRIDINE] | 481 | 
CNC [DIMETHYLAMINE] | 9420 | 
CN(C)CCO [DIMETHYLAMINOETHANOL] | 55.7 | 
C[N+]1(C)CCO[C@@](O)(c2ccc(-c3ccc([C@@]4(O)C[N+](C)(C)CCO4)cc3)cc2)C1 [HEMICHOLINIUM DIBROMIDE] |  | 0.01
CN [METHYLAMINE] | 35100 | 
CN1CCC[C@H]1c1cccnc1 [NICOTINE] | 520 | 
CCCC[N+](CCCC)(CCCC)CCCC [TETRABUTYLAMMONIUM] | 1050 | 
C[N+](C)(C)C [TETRAMETHYLAMMONIUM] | 30.1 | 
CC[N+](CC)(CC)CC [TETRYLAMMONIUM] | 260 | 
CN(C)C [TRIMETHYLAMMONIUM] | 340 | 
